Tests used:
[1] = tested on: ABUTH (velvetleaf); assay: Pre-plant incorporated (PPI) herbicidal activity, warm season; type: in vivo, Abutilon theophrasti
Procedure: (§1) In another set of tests, the pre-plant incorporated (PPI) activity of compounds of this invention was evaluated on the same species as for the pre-emergence tests described above. In the PPI tests the following procedure, designed to simulate PPI application, was used.
(§2) A pre-prepared topsoil mixture (described above) was placed in a pot and compacted to a depth of 1.0 to 1.25 cm from the top of the pot. Seeds of each of several monocotyledonous and dicotyledonous annual plant species were placed on top of the soil. A sufficient quantity of soil to cover the seeds and level fill the pot was weighed into an open container. A known amount of the test compound was dissolved or suspended in an organic solvent and applied by spraying to this cover soil. The cover soil was thoroughly mixed to distribute the test compound throughout the cover soil, and was then applied as a cover layer over the seeds. Untreated soil was used as a cover layer for control pots. After treatment the plants were placed in a greenhouse where they received 0.64 cm of overhead irrigation. All subsequent watering consisted of a light overhead mist and/or subirrigation as needed for germination and growth. Tables 9 and 10 below relate to warm season plant species which were placed after pre-emergence treatment in a greenhouse with a 30/21° C. day/night temperature regime. Tables 11 and 12 below relates to cool season plant species placed after pre-emergence treatment in a greenhouse or growth chamber with an 18/13° C. day/night temperature regime. Only the compounds of Examples 1, 6, 8, 11, 13 and 15-20 were included in PPI tests.
(§3) Approximately 14 days after planting and treating, the plants were observed and herbicidal efficacy recorded as percent inhibition by comparison with untreated plants.

[2] = tested on: AEGCY (jointed goatgrass); assay: Pre-plant incorporated (PPI) herbicidal activity, cool season; type: in vivo, Aegilops cylindrica
Procedure: as §1, §2, §3

[3] = tested on: DATST (jimsonweed); assay: Pre-plant incorporated (PPI) herbicidal activity, warm season; type: in vivo, Datura stramonium
Procedure: as §1, §2, §3

[4] = tested on: oilseed rape (BRSNS); assay: Selectivity test, PPI, cool season crop; type: in vivo, Brassica napus; settings: PPI application
Procedure: as §2, §3
Additional pre-emergence and PPI tests were conducted by the procedures described above, on warm and cool season weed species in the presence of crop species, to assess herbicidal selectivity. Crop species included in warm season tests were corn (Zea mays, ZEAMX), rice (Oryza sativa, ORYSA) and soybean (Glycine max, GLYMX). Crop species included in cool season tests were wheat (Triticum aestivum, TRZAW), barley (Hordeunm vulgare, HORVX) and oilseed rape (Brassica napus, BRSNS).
Tables 15 and 16 relate to pre-emergence and PPI tests respectively on warm season species. Table 17 relates to pre-emergence tests on cool season species.

[5] = tested on: POAAN (annual bluegrass); assay: Pre-plant incorporated (PPI) herbicidal activity, cool season; type: in vivo, Poa annua; settings: weed, PPI application
Procedure: as §1, §2, §3

[6] = tested on: SORVU (shattercane); assay: Pre-plant incorporated (PPI) herbicidal activity, warm season; type: in vivo, Sorghum vulgare
Procedure: as §1, §2, §3

[7] = tested on: STEME (common chickweed); assay: Pre-plant incorporated (PPI) herbicidal activity, cool season; type: in vivo, Stellaria media
Procedure: as §1, §2, §3

[8] = tested on: DIGSA (large crabgrass); assay: Pre-plant incorporated (PPI) herbicidal activity, warm season; type: in vivo, Digitaria sanguinalis
Procedure: as §1, §2, §3

[9] = tested on: SORVU (shattercane); assay: Pre-emergence herbicidal activity, warm season; type: in vivo, Sorghum vulgare; settings: GR80 = lowest tested rate (300, 100, 30, 10 g/ha) with 80% or greater inhibition; approx. 14 days after treating; 30/21° C.
In short: (§4)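 Seeds sown in sterilised fertilised topsoil received surface-applied compound in 50:50 acetone/water, typically at 300, 100, 30 and 10 g/ha, then greenhouse-grown at 30/21° C (warm-season species) or 18/13° C (cool-season species). Percent inhibition versus untreated plants was scored at about 14 days, giving GR80; an asterisk marks activity short of 80% at the top rate.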

[10] = tested on: CHEAL (common lambsquarters); assay: Pre-emergence herbicidal activity, warm season; type: in vivo, Chenopodium album; settings: GR80 = lowest tested rate (300, 100, 30, 10 g/ha) with 80% or greater inhibition; approx. 14 days after treating; 30/21° C.
In short: as §4

[11] = pre-plant incorporated, GR80 = lowest tested rate with 80% or greater inhibition, approx. 14 days after treating, 30/21° C.
[12] = pre-plant incorporated, lowest tested rate with 80% or greater inhibition, about 14 days
[13] = weed, PPI application, 100 g/ha
[14] = weed, PPI application, 300 g/ha
[15] = weed, PPI application, 900 g/ha

CCSC(F)(F)S(=O)(=O)c1ncn(C(=O)N(CC)CC)n1 [Example 8, 1-(N,N-diethylcarbamoyl)-3-[difluoro(ethylthio)methylsulfonyl]-1,2,4-triazole]
inhibition at 30 g/ha ([1]; Abutilon theophrasti, PPI application, 30 g/ha, read-out: Percent inhibition ABUTH): 0% | inhibition at 100 g/ha ([1]; Abutilon theophrasti, PPI application, 100 g/ha, read-out: Percent inhibition ABUTH): 10% | inhibition at 300 g/ha ([1]; Abutilon theophrasti, PPI application, 300 g/ha, read-out: Percent inhibition ABUTH): 20% | inhibition at 900 g/ha ([1]; Abutilon theophrasti, PPI application, 900 g/ha, read-out: Percent inhibition ABUTH): 100% | PPI activity (GR80) ABUTH [1, 11]: 300 g/ha | inhibition at 30 g/ha ([2]; Aegilops cylindrica, weed, PPI application, 30 g/ha, read-out: Percent inhibition AEGCY): 0% | inhibition at 100 g/ha ([2]; Aegilops cylindrica, weed, PPI application, 100 g/ha, read-out: Percent inhibition AEGCY): 50% | inhibition at 300 g/ha ([2]; Aegilops cylindrica, weed, PPI application, 300 g/ha, read-out: Percent inhibition AEGCY): 40% | inhibition at 900 g/ha ([2]; Aegilops cylindrica, weed, PPI application, 900 g/ha, read-out: Percent inhibition AEGCY): 20% | PPI activity GR80, AEGCY [2, 12]: [empty] | inhibition at 30 g/ha ([3]; Datura stramonium, PPI application, 30 g/ha, read-out: Percent inhibition DATST): 30% | inhibition at 100 g/ha ([3]; Datura stramonium, PPI application, 100 g/ha, read-out: Percent inhibition DATST): 60% | inhibition at 300 g/ha ([3]; Datura stramonium, PPI application, 300 g/ha, read-out: Percent inhibition DATST): 100% | inhibition at 900 g/ha ([3]; Datura stramonium, PPI application, 900 g/ha, read-out: Percent inhibition DATST): 100% | PPI activity (GR80) DATST [3, 11]: 100 g/ha | inhibition at 30 g/ha ([4]; Brassica napus, 30 g/ha, read-out: Percent inhibition BRSNS): 0% | inhibition at 100 g/ha ([4]; Brassica napus, 100 g/ha, read-out: Percent inhibition BRSNS): 0% | inhibition at 300 g/ha ([4]; Brassica napus, 300 g/ha, read-out: Percent inhibition BRSNS): 40% | inhibition at 900 g/ha ([4]; Brassica napus, 900 g/ha, read-out: Percent inhibition BRSNS): 100% | inhibition at 30 g/ha ([5]; Poa annua, 30 g/ha, read-out: Percent inhibition POAAN): 100% | inhibition at 100 g/ha ([5]; Poa annua, 100 g/ha, read-out: Percent inhibition POAAN): 100% | inhibition at 300 g/ha ([5]; Poa annua, 300 g/ha, read-out: Percent inhibition POAAN): 100% | inhibition at 900 g/ha ([5]; Poa annua, 900 g/ha, read-out: Percent inhibition POAAN): 100% | inhibition at 30 g/ha ([6]; Sorghum bicolor, PPI application, 30 g/ha, read-out: Percent inhibition SORVU): 50% | inhibition at 100 g/ha ([6]; Sorghum bicolor, PPI application, 100 g/ha, read-out: Percent inhibition SORVU): 70% | inhibition at 300 g/ha ([6]; Sorghum bicolor, PPI application, 300 g/ha, read-out: Percent inhibition SORVU): 100% | inhibition at 900 g/ha ([6]; Sorghum bicolor, PPI application, 900 g/ha, read-out: Percent inhibition SORVU): 100% | PPI activity GR80, SORVU [6, 12]: 300 g/ha | inhibition at 30 g/ha ([7]; Stellaria media, weed, PPI application, 30 g/ha, read-out: Percent inhibition STEME): 80% | inhibition at 100 g/ha ([7]; Stellaria media, weed, PPI application, 100 g/ha, read-out: Percent inhibition STEME): 80% | inhibition at 300 g/ha ([7]; Stellaria media, weed, PPI application, 300 g/ha, read-out: Percent inhibition STEME): 95% | inhibition at 900 g/ha ([7]; Stellaria media, weed, PPI application, 900 g/ha, read-out: Percent inhibition STEME): 99% | PPI activity GR80, STEME [7, 12]: 30 g/ha | inhibition at 30 g/ha ([8]; Digitaria sanguinalis, PPI application, 30 g/ha, read-out: Percent inhibition DIGSA): 100% | inhibition at 100 g/ha ([8]; Digitaria sanguinalis, PPI application, 100 g/ha, read-out: Percent inhibition DIGSA): 100% | inhibition at 300 g/ha ([8]; Digitaria sanguinalis, PPI application, 300 g/ha, read-out: Percent inhibition DIGSA): 100% | inhibition at 900 g/ha ([8]; Digitaria sanguinalis, PPI application, 900 g/ha, read-out: Percent inhibition DIGSA): 100% | PPI activity GR80, DIGSA [8, 12]: 30 g/ha | Pre-emergence activity (GR80) SORVU [9]: 100 g/ha | Pre-emergence activity (GR80) CHEAL [10]: 100 g/ha

CCN(CC)C(=O)n1cnc(S(=O)(=O)C(F)(F)SC)n1 [Example 9]
Percent inhibition ABUTH ([1]; PPI application, 30 g/ha): 0% | Percent inhibition ABUTH ([1]; PPI application, 100 g/ha): 0% | Percent inhibition ABUTH ([1]; PPI application, 300 g/ha): 60% | Percent inhibition ABUTH ([1]; PPI application, 900 g/ha): 90% | Percent inhibition AEGCY ([2]; weed, PPI application, 30 g/ha): 0% | Percent inhibition AEGCY [2, 13]: 20% | Percent inhibition AEGCY [2, 14]: 30% | Percent inhibition AEGCY [2, 15]: 40% | Percent inhibition DATST ([3]; PPI application, 30 g/ha): 0% | Percent inhibition DATST ([3]; PPI application, 100 g/ha): 0% | Percent inhibition DATST ([3]; PPI application, 300 g/ha): 80% | Percent inhibition DATST ([3]; PPI application, 900 g/ha): 100% | Percent inhibition BRSNS ([4]; 30 g/ha): 50% | Percent inhibition BRSNS ([4]; 100 g/ha): 95% | Percent inhibition BRSNS ([4]; 300 g/ha): 100% | Percent inhibition BRSNS ([4]; 900 g/ha): 100% | Percent inhibition POAAN ([5]; 30 g/ha): 90% | Percent inhibition POAAN ([5]; 100 g/ha): 100% | Percent inhibition POAAN ([5]; 300 g/ha): 100% | Percent inhibition POAAN ([5]; 900 g/ha): 100% | Percent inhibition SORVU ([6]; PPI application, 30 g/ha): 60% | Percent inhibition SORVU ([6]; PPI application, 100 g/ha): 70% | Percent inhibition SORVU ([6]; PPI application, 300 g/ha): 100% | Percent inhibition SORVU ([6]; PPI application, 900 g/ha): 100% | Percent inhibition STEME ([7]; weed, PPI application, 30 g/ha): 70% | Percent inhibition STEME [7, 13]: 95% | Percent inhibition STEME [7, 14]: 100% | Percent inhibition STEME [7, 15]: 100% | Percent inhibition DIGSA ([8]; PPI application, 30 g/ha): 95% | Percent inhibition DIGSA ([8]; PPI application, 100 g/ha): 100% | Percent inhibition DIGSA ([8]; PPI application, 300 g/ha): 100% | Percent inhibition DIGSA ([8]; PPI application, 900 g/ha): 100% | Pre-emergence activity (GR80) SORVU [9]: 300 g/ha | Pre-emergence activity (GR80) CHEAL [10]: 300 g/ha

— patent US6461997B1, “Triazole sulfones having herbicidal activity” (Monsanto Technology LLC, priority 1999, dated 2002)
